Experiment [1] concerns the target KMP-11 (Leishmania donovani, UniProt Q36736, Y89W). In words: biochemical.
The target in experiment [2] is T1, KMP-11 (Leishmania donovani, UniProt Q36736).
T1 sequence (Q36736 1-92): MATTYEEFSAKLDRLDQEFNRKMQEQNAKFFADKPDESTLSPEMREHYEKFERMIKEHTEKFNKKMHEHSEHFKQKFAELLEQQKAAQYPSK
Put plainly: DiI C-18 fluorescence quenching, Hill fit. It counts as binding.

Experiment [3] deals with KMP-11 (Leishmania donovani, UniProt Q36736, F62W). Put plainly: biochemical.
Experiment [4] addresses KMP-11 (Leishmania donovani, UniProt Q36736, Y5W). In words: biochemical.
Experiment [5] addresses KMP-11 (Leishmania donovani, UniProt Q36736, Y48W). In words: biochemical.

These results are taken from article doi:10.1101/2020.03.08.982454v1 (biorxiv, 2020).

As a reminder, the Kd is the constant that tells how readily two partners part at equilibrium. Low values mean a tighter complex, high ones a looser complex.

For `CCCCCCCCCCCCCCCC(=O)OC[C@H](COP(=O)([O-])OCC[N+](C)(C)C)OC(=O)CCCCCCCCCCCCCCC` [DPPC], the equilibrium dissociation constant (Kd) in experiment [1] is 161 nM; in experiment [2], 286 nM; in experiment [3] it was 3800 nM; in experiment [4], 19.4 nM; in experiment [5], 118 nM.
